{"source": "ChEMBL document CHEMBL1156554", "about": "“Aminoquinazolines as TRPV1 antagonists: modulation of drug-like properties through the exploration of 2-position substitution” (Bioorg Med Chem Lett, 2008)", "key": {"[1]": {"assay": "AUC (0 to infinity) in rat at 2.0 mg/kg, po dosed in 0.5% methylcellulose, 0.1% triacetin", "format": "ADME, organism-based", "parameters": "time infinity, dose 2 mg/kg, route oral", "settings": "in vivo"}, "[2]": {"assay": "Cmax in rat at 2.0 mg/kg, po dosed in 0.5% methylcellulose, 0.1% triacetin", "format": "ADME, organism-based", "parameters": "dose 2 mg/kg, route oral", "settings": "in vivo"}, "[3]": {"assay": "Tmax in rat at 2.0 mg/kg, po dosed in 0.5% methylcellulose, 0.1% triacetin", "format": "ADME, organism-based", "parameters": "dose 2 mg/kg, route oral", "settings": "in vivo"}, "[4]": {"assay": "Half life in rat at […], iv dosed in 50% PEG-400/water", "format": "ADME, organism-based", "parameters": "dose 1.5 mg/kg, route intravenous", "settings": "in vivo"}, "[5]": {"assay": "Bioavailability in rat at 2.0 mg/kg, po dosed in 0.5% methylcellulose, 0.1% triacetin", "format": "ADME, organism-based", "settings": "in vivo"}, "[6]": {"assay": "Dissociation constant, pKa of the compound", "format": "physicochemical"}, "Liver microsomes [7]": {"test_system": "Liver microsomes", "assay": "Metabolic stability in rat liver microsomes at 1 uM", "format": "ADME, Microsome"}, "[8]": {"assay": "Clearance in rat at […], iv dosed in 50% PEG-400/water", "format": "ADME, organism-based", "parameters": "dose 1.5 mg/kg, route intravenous", "settings": "in vivo"}, "Liver microsomes [9]": {"test_system": "Liver microsomes", "assay": "Metabolic stability in human liver microsomes at 1 uM", "format": "ADME, Microsome"}, "[10]": {"assay": "Chemical stability in 0.1 N HCl after 4 hrs", "format": "physicochemical", "settings": "read-out: Activity"}, "[11]": {"assay": "Volume of distribution at steady state in rat at […], iv dosed in 50% PEG-400/water", "format": "ADME, organism-based", "parameters": "dose 1.5 mg/kg, route intravenous", "settings": "in vivo, read-out: Vdss"}, "[12]": {"assay": "Clearance in rat at 1.0 mg/kg, iv dosed in 50% PEG-400/water", "format": "ADME, organism-based", "parameters": "dose 1 mg/kg, route intravenous", "settings": "in vivo"}, "[13]": {"assay": "Ratio of drug level in brain to plasma in rat at 3 mg/kg, po after 4 hrs", "format": "ADME, organism-based", "parameters": "dose 3 mg/kg, route oral"}, "[14]": {"assay": "Half life in rat at 1.0 mg/kg, iv dosed in 50% PEG-400/water", "format": "ADME, organism-based", "parameters": "dose 1 mg/kg, route intravenous", "settings": "in vivo"}, "[15]": {"assay": "Volume of distribution at steady state in rat at 1.0 mg/kg, iv dosed in 50% PEG-400/water", "format": "ADME, organism-based", "parameters": "dose 1 mg/kg, route intravenous", "settings": "in vivo, read-out: Vdss"}, "[16]": {"assay": "(§1) Bioavailability in rat at 2.0 mg/kg, po dosed in 2% D-alpha-tocopheryl polyethylene glycol 1000 succinate", "format": "ADME, organism-based", "settings": "in vivo"}, "[17]": {"assay": "AUC (0 to infinity) in rat at 2.0 mg/kg, po dosed in 2% D-alpha-tocopheryl polyethylene glycol 1000 succinate", "format": "ADME, organism-based", "parameters": "dose 2 mg/kg, route oral, time infinity", "settings": "plasma"}, "[18]": {"assay": "Cmax in rat at 2.0 mg/kg, po dosed in 2% D-alpha-tocopheryl polyethylene glycol 1000 succinate", "format": "ADME, organism-based", "parameters": "dose 2 mg/kg, route oral", "settings": "in vivo"}, "[19]": {"assay": "Tmax in rat at 2.0 mg/kg, po dosed in 2% D-alpha-tocopheryl polyethylene glycol 1000 succinate", "format": "ADME, organism-based", "parameters": "dose 2 mg/kg, route oral", "settings": "in vivo"}, "[20]": {"assay": "Tmax in rat at […], po dosed in 0.5% methylcellulose, 0.1% triacetin", "format": "ADME, organism-based", "parameters": "dose 2.1 mg/kg, route oral", "settings": "in vivo"}, "[21]": {"assay": "Bioavailability in rat at […], po dosed in 0.5% methylcellulose, 0.1% triacetin", "format": "ADME, organism-based", "settings": "in vivo"}, "[22]": {"assay": "Cmax in rat at […], po dosed in 0.5% methylcellulose, 0.1% triacetin", "format": "ADME, organism-based", "parameters": "dose 2.1 mg/kg, route oral", "settings": "in vivo"}, "[23]": {"assay": "AUC (0 to infinity) in rat at […], po dosed in 0.5% methylcellulose, 0.1% triacetin", "format": "ADME, organism-based", "parameters": "time infinity, dose 2.1 mg/kg, route oral", "settings": "in vivo"}, "Rattus norvegicus": {"test_system": "Rattus norvegicus", "assay": "as §1", "format": "ADME, organism-based", "settings": "in vivo"}, "[24]": {"assay": "Clearance in rat at 2.7 mg/kg, iv dosed in 50% PEG-400/water", "format": "ADME, organism-based", "parameters": "dose 2.7 mg/kg, route intravenous", "settings": "in vivo"}, "[25]": {"assay": "Half life in rat at 2.7 mg/kg, iv dosed in 50% PEG-400/water", "format": "ADME, organism-based", "parameters": "dose 2.7 mg/kg, route intravenous", "settings": "in vivo"}, "[26]": {"assay": "Volume of distribution at steady state in rat at 2.7 mg/kg, iv dosed in 50% PEG-400/water", "format": "ADME, organism-based", "parameters": "dose 2.7 mg/kg, route intravenous", "settings": "in vivo, read-out: Vdss"}}}
{"smiles": "C[C@@H]1CN(Cc2nc(Nc3ccc(C(F)(F)F)nc3)c3ccc(-c4ncccc4C(F)(F)F)cc3n2)C[C@H](C)O1", "values": [{"measurement": "AUC(0-inf)", "setting": "[1]", "value": 218, "unit": "ng·h/mL"}, {"measurement": "Cmax", "setting": "[2]", "value": 93, "unit": "ng/mL"}, {"measurement": "Tmax", "setting": "[3]", "value": 0.9, "unit": "h"}]}
{"smiles": "FC(F)(F)c1ccc(Nc2ncnc3cc(-c4ncccc4C(F)(F)F)ccc23)nc1", "values": [{"measurement": "half-life", "setting": "[4]", "value": 2280, "unit": "min"}, {"measurement": "bioavailability", "setting": "[5]", "value": 89, "unit": "%"}, {"measurement": "pKa", "setting": "[6]", "value": 3.26}, {"measurement": "Stability", "setting": "Liver microsomes [7]", "value": "Stable"}, {"measurement": "AUC(0-inf)", "setting": "[1]", "value": 7620, "unit": "ng·h/mL"}, {"measurement": "Cmax", "setting": "[2]", "value": 137, "unit": "ng/mL"}, {"measurement": "Tmax", "setting": "[3]", "value": 5.7, "unit": "h"}, {"measurement": "clearance", "setting": "[8]", "value": 4.2, "unit": "mL/min/kg"}, {"measurement": "Stability", "setting": "Liver microsomes [9]", "value": "Stable"}, {"measurement": "remaining at 4 h", "setting": "[10]", "value": 57, "unit": "%"}, {"measurement": "Vd", "setting": "[11]", "value": 12, "unit": "L/kg"}]}
{"smiles": "CC1CN(Cc2nc(Nc3ccc(C(F)(F)F)cc3)c3ccc(-c4ncccc4C(F)(F)F)cc3n2)CC(C)O1", "note": "(stereo not drawn)", "values": [{"measurement": "pKa", "setting": "[6]", "value": 7.51}]}
{"smiles": "CCOCc1nc(Nc2ccc(C(F)(F)F)nc2)c2ccc(-c3ncccc3C(F)(F)F)cc2n1", "values": [{"measurement": "Stability", "setting": "Liver microsomes [7]", "value": "Stable"}, {"measurement": "Stability", "setting": "Liver microsomes [9]", "value": "Stable"}]}
{"smiles": "FC(F)(F)c1ccc(Nc2nc(CCCN3CCOCC3)nc3cc(-c4ncccc4C(F)(F)F)ccc23)cc1", "values": [{"measurement": "pKa", "setting": "[6]", "value": 7.86}]}
{"smiles": "CC(C)OCc1nc(Nc2ccc(C(F)(F)F)nc2)c2ccc(-c3ncccc3C(F)(F)F)cc2n1", "values": [{"measurement": "Stability", "setting": "Liver microsomes [7]", "value": "Stable"}, {"measurement": "Stability", "setting": "Liver microsomes [9]", "value": "Stable"}]}
{"smiles": "COCc1nc(Nc2ccc(C(F)(F)F)cc2)c2ccc(-c3ncccc3C(F)(F)F)cc2n1", "values": [{"measurement": "clearance", "setting": "[12]", "value": 5.3, "unit": "mL/min/kg"}, {"measurement": "bioavailability", "setting": "[5]", "value": 50, "unit": "%"}, {"measurement": "pKa", "setting": "[6]", "value": 3.7}, {"measurement": "AUC(0-inf)", "setting": "[1]", "value": 3250, "unit": "ng·h/mL"}, {"measurement": "Cmax", "setting": "[2]", "value": 215, "unit": "ng/mL"}, {"measurement": "Tmax", "setting": "[3]", "value": 3.7, "unit": "h"}, {"measurement": "Kp at 4 h", "setting": "[13]", "value": 1.8}, {"measurement": "half-life", "setting": "[14]", "value": 414, "unit": "min"}, {"measurement": "Vd", "setting": "[15]", "value": 3.5, "unit": "L/kg"}]}
{"smiles": "FC(F)(F)c1ccc(Nc2ncnc3cc(-c4ncccc4C(F)(F)F)ccc23)cn1", "values": [{"measurement": "bioavailability", "setting": "[16]", "value": 94, "unit": "%"}, {"measurement": "AUC(0-inf)", "setting": "[17]", "value": 1450, "unit": "ng·h/mL"}, {"measurement": "Cmax", "setting": "[18]", "value": 211, "unit": "ng/mL"}, {"measurement": "half-life", "setting": "[4]", "value": 252, "unit": "min"}, {"measurement": "pKa", "setting": "[6]", "value": 3.48}, {"measurement": "Stability", "setting": "Liver microsomes [7]", "value": "Stable"}, {"measurement": "Tmax", "setting": "[19]", "value": 1.7, "unit": "h"}, {"measurement": "Tmax", "setting": "[20]", "value": 1.8, "unit": "h"}, {"measurement": "bioavailability", "setting": "[21]", "value": 61, "unit": "%"}, {"measurement": "clearance", "setting": "[8]", "value": 22, "unit": "mL/min/kg"}, {"measurement": "Stability", "setting": "Liver microsomes [9]", "value": "Stable"}, {"measurement": "Cmax", "setting": "[22]", "value": 137, "unit": "ng/mL"}, {"measurement": "AUC(0-inf)", "setting": "[23]", "value": 982, "unit": "ng·h/mL"}, {"measurement": "Vd", "setting": "[11]", "value": 5.5, "unit": "L/kg"}]}
{"smiles": "FC(F)(F)c1ccc(Nc2ncnc3cc(-c4ncccc4C(F)(F)F)ccc23)cc1", "note": "[NGD-8243]", "values": [{"measurement": "F", "setting": "Rattus norvegicus", "value": 99, "unit": "%"}, {"measurement": "AUC(0-inf)", "setting": "[17]", "value": 1430, "unit": "ng·h/mL"}, {"measurement": "Cmax", "setting": "[18]", "value": 101, "unit": "ng/mL"}, {"measurement": "clearance", "setting": "[24]", "value": 23, "unit": "mL/min/kg"}, {"measurement": "bioavailability", "setting": "[5]", "value": 8, "unit": "%"}, {"measurement": "pKa", "setting": "[6]", "value": 4.54}, {"measurement": "AUC(0-inf)", "setting": "[1]", "value": 121, "unit": "ng·h/mL"}, {"measurement": "half-life", "setting": "[25]", "value": 480, "unit": "min"}, {"measurement": "Cmax", "setting": "[2]", "value": 13, "unit": "ng/mL"}, {"measurement": "Tmax", "setting": "[19]", "value": 0.67, "unit": "h"}, {"measurement": "Tmax", "setting": "[3]", "value": 3, "unit": "h"}, {"measurement": "Vd", "setting": "[26]", "value": 13, "unit": "L/kg"}]}
{"smiles": "FC(F)(F)c1ccc(Nc2nc(CN3CCOCC3)nc3cc(-c4ncccc4C(F)(F)F)ccc23)nc1", "values": [{"measurement": "Stability", "setting": "Liver microsomes [7]", "value": "Stable"}, {"measurement": "Stability", "setting": "Liver microsomes [9]", "value": "Stable"}]}
{"smiles": "CN1CCN(Cc2nc(Nc3ccc(C(F)(F)F)cc3)c3ccc(-c4ncccc4C(F)(F)F)cc3n2)CC1", "values": [{"measurement": "pKa", "setting": "[6]", "value": 7.68}]}
